# Source: US20230390224A1, “UNITARY ORAL DOSAGE FORM IN BASE OF SPHERICAL AND/OR SPHEROIDAL SHAPED PARTICLES” (ATOMIC PHARMACEUTICS INC., priority 2022, published 2023)
# Where a name gives a salt, the structure may show the parent alone.
# Columns and labels:
# [1] = cited from earlier work
# [2] = cited from earlier work; remark: listed apart in the source
# [3] = Release of API from gel particles into liquid medium B (spectrophotometry; Weibull Fmax, Higuchi release rate); format: physicochemical; settings: liquid medium B and liquid medium C
# Procedure: To the measurements of APIs release, the APIs concentrations were determined spectrophotometrically, by sampling in a Thermo Spectronic Genesys 10 UV equipment. Each of the measurements were performed in duplicate or more trials. The wavelengths occupied will depend on each API tested (for example, 243 nm for acetaminophen, 230 nm for naproxen).
# To evaluate each of the experiments carried out and adjust the concentration points during the release experiments, various methods were used: zero order models, first order, Higuchi, Hixson-Crowell, square root of the mass, root 3/2 of the mass, Weibull and Korsmeyer-Peppas. The model that best fits the concentration points during the release experiments was a Weibull model (Vasiliki Papadopoulou, Kosmas Kosmidis, Marilena Vlachou, Panos Macheras, “On the use of the Weibull function for the discernment of drug release mechanisms,” International Journal of Pharmaceutics 309 (2006) 44-50).
# An example of the surprising effects of modification of these formulation design factors is shown below for the same API (acetaminophen or paracetamol), as an example of the different effects that can be achieved using the same amount of API in all formulations (120 mg of total acetaminophen in each example). […]
SMILES,log P [1],solubility in oily media / oil phase [2],solubility in water [2],release of API into the aqueous medium [3]
"CC(=O)Nc1ccc(O)cc1 [Acetaminophen, acetaminophen]",4.6,poorly soluble,poorly soluble,–
"CC(=O)Oc1ccccc1C(=O)O [Acetyl salicylic acid, acetyl salicylic acid]",–,slightly soluble,soluble,–
"C=C(C)[C@@H]1CCC(C)=C[C@H]1c1c(O)cc(CCCCC)cc1O [CBD, cannabinoidiol]",7.75,highly soluble,very slightly soluble,–
"CN(C)CCC(c1ccc(Cl)cc1)c1ccccn1 (stereo not shown) [Chlorphenamine maleate, chlorphenamine maleate]",3.7,–,–,–
"Cc1cccc(Nc2ccccc2C(=O)O)c1C [Mefenamic acid, mefenamic acid]",4.2,not soluble,very poorly soluble,no release
